Values quoted from earlier work as cited in patent US11420990B2, “Ruthenium complex containing alkynyl group, method of synthesizing the same and use thereof” (GUANGDONG PHARMACEUTICAL UNIVERSITY, priority 2018, dated 2022).

Tested on: cancer cells
Settings: background statement

For `[Ru+2].c1ccc(-c2ccccn2)nc1.c1ccc(-c2ccccn2)nc1.c1ccc2nc3c4cccnc4c4ncccc4c3nc2c1` [[Ru(bpy)2(dppz)]^2+], which “cytotoxicity to cancer cells (in words)” value is on record?
Its value is “insignificant cytotoxicity”.
